In patent US4873347A, “Process for the preparation of the demalonyl compound of macrolide lactones” (Hoechst Aktiengesellschaft, priority 1986, dated 1989):
Converted amounts (≈) assume the structure as drawn.

Assays:
Type in all cases: cell-based
Candida albicans = experiment: in vitro serial dilution test for antimycotic action (microtitration technique), yeast; details: read-out: Minimum inhibitory concentration for Candida albicans
Description: (§1) The in vitro tests for an antimycotic action are carried out in serial dilution tests on yeasts (Candida albicans) and molds (Aspergillus niger) [Material and Methods: Microtitration technique published in Mykosen 27, 14 (1984)].

Aspergillus niger = experiment: in vitro serial dilution test for antimycotic action (microtitration technique), mold; details: read-out: Minimum inhibitory concentration for Aspergillus niger
Description: as §1

[1] = test system: yeasts (Candida albicans) and molds (Aspergillus niger); experiment: in vitro tests for an antimycotic action in serial dilution, overall result in words; details: compared with reference substance niphimycin
Description: as §1

Q: What does the source list for `CNC(=N)NCCCC=CCCCC(C)CC(C)C1OC(=O)C(C)C(O)C=CC(C)C(O)CC(O)C(C)C(O)CCC(C)C(O)CC2(O)OC(CC(O)CC(O)CC(O)C(C)C(O)C=CC=CC1C)CC(O)C2O` (centres unmarked) [Demalonyl compound]?
A: MIC (Candida albicans): 3.9 µg/mL (≈ 3.69 µM); MIC (Aspergillus niger): 1.95 µg/mL (≈ 1.85 µM); antimycotic properties [1]: good antimycotic properties which are superior to those of the reference substance niphimycin

Q: With `CNC(=N)NCCCC=CCCCC(C)CC(C)C1OC(=O)C(C)C(O)C=CC(C)C(O)CC(O)C(C)C(O)CCC(C)C(O)CC2(O)OC(CC(OC(=O)CC(=O)O)CC(O)CC(O)C(C)C(O)C=CC=CC1C)CC(O)C2O` (centres unmarked) [Niphimycin, reference compound] as the molecule, how does the MIC (Candida albicans) read?
A: Its MIC is 7.8 µg/mL (≈ 6.83 µM).

Q: And the MIC (Aspergillus niger)?
A: The MIC was 3.9 µg/mL (≈ 3.41 µM).
